{
  "source": "patent EP1760056A1",
  "about": "“A convenient method for the preparation of no-carrier-added O-(2-[18F]fluoroethyl)-L-Tyrosine)” (Institute of Nuclear Energy Research, priority 2005, dated 2007)",
  "key": {"brain tumor (F98 glioma)": {"tested_on": "brain tumor (F98 glioma)", "test": "PET and microPET imaging of tumor-bearing rat with L-[18F]FET", "format": "in vivo, rat (Fischer 344)", "settings": "400 µCi into tail vein", "procedure": "• (1) Positron emission tomography (PET) studies of tumor-bearing rat (Fischer 344) with L-[^18F]FET will be carry out after 11~12 days of brain tumor (F98 glioma) implantation. • (2) Producing processes of L-[^18F]FET as described above, and estimates its administrating amount of agent according to the level of radioactivity. • (3) At the very beginning, inject 400 µCi of L-[^18F]FET into tail vein. Temporarily anesthetize rats with ether at time of 0.5, 1, 1.5 and 2 hours. Fix rat on transparent acrylic board and place on PET table after securing stretched limbs on the board. Continuously anesthetize rats with isoflurane gas. Align implant portion of head with PET machine as to assure the fixation of original imaging position. • (4) Adjust background value by blank scan before PET imaging. • (5) Use Ga-68 radioactive source proceed transmission scan for adjust tissue attenuation. • (6) Commence PET and microPET imaging. Perform image processing after reconstruction of acquired image data; the coronal and cross section scans show in Figure 3 and 9. […] In contrast to tumor site, normal tissue have lower radioactivity accumulation of L-[^18F]FET because of lower amino acid requirement."}, "F98 glioma cells [1]": {"tested_on": "F98 glioma cells", "test": "L-[18F]FET uptake by F98 glioma tumor cells", "format": "cell-based, rat", "settings": "10 µCi/well", "procedure": "• (1) In five six-well plates, put 1×10^6 F98 glioma cells and 2 ml DMEM (1g glucose/1) into three wells. • (2) Total of five time points (2, 5, 10, 30 minute and 1hour) in this experiment and each time point use one six-well plate. • (3) Predetermined activity of L-[^18F]FET or [^18F]FDG (10 µCi/well) is added into each well during the experiment. […] F98 glioma cells intake L-[^18F]FET rapidly and maximal accumulation will reach after 10 minutes (uptake ratio 0.47%). As cell cannot metabolize L-[^18F]FET, therefore, the rate of L-[^18F]FET transportation by the cells become balance after ten minutes when add L-[^18F]FET; the accumulation of L-[^18F]FET in glioma cells only slightly decrease after 1 hour (uptake ratio 0.41%)."}, "[2]": {"test": "Biological distribution of L-[18F]FET in F98 glioma-bearing Fischer 344 rat", "settings": "in vivo, iv; for tissue uptake at 0.25 h: 15 min after injection via tail vein; for tissue uptake at 0.5 h: 30 min after injection via tail vein; for tissue uptake at 1 h: 60 min after injection via tail vein; for tissue uptake at 2 h: 120 min after injection via tail vein", "procedure": "(§1) • (1) Total of twenty Fischer 344 male rats will be assessed in vivo for L-[^18F]FET biological distribution. Use the intersection of bregma and sagittal midlines as original point; so as to implant F98 glioma cells (1 × 10^5cells /10 µl) at the place of 3mm left 5mm upward and 5mm depth. Biological distribution test will be carry out after 11~12 days of brain tumor implantation. • (2) Different volume of radioactive level is injected, injected volume of L-[^18F]FET for each Fischer 344 rat is 200~300µl, that is approximately 200~250 µCi of activity. • (3) Inject L-[^18F]FET via tail vein, and rats are sacrificed at 15, 30, 60, 90 and 120 minutes. • (4) Dissection of rat organ is right after sacrifice. Scissors off chest and abdomen fur alone the line from genital pore upward to jowl. Next, scissors off chest above xiphisternal transversely. Open ribs aside, take blood sample from venous sinus with 0.5 ml syringe. Withdraw the needle after depletion of blood and collect the extracted heart. Collect the lung lobes with forcep. • (5) Scissors off abdominal muscle from genital pore upward to the position below xiphisternal longitudinally. Then, scissors off the opening of upper and lower edges transversely, everts muscle layers to both sides and expose celiac organs. Search for bladder in lower abdomen and sequentially removes stomach, liver, spleen, small intestine, large intestine, kidney, and muscle. • (6) After turn over the rat, scissors off fur of shoulder and removes exposed subcutaneous tumor. Cut scalp upward at lower margin of cranium above foramen magnum and expose cranial bone. Then, cut cervical portion transversely at foramen magnum and expose spinal cord. Inserts foramen magnum with scissors' tip while attach the inner surface of cranium; such that scissors' tip can reach the frontal edge of cranial cavity in order to scissor off the center of cranium. Use scissors to open cranium aside and expose brain tissue. Alone skull base insert scissors deeply to the front edge of cranial cavity in order to remove left-brain, right-brain and brain tumor. • (7) Weight all organ samples; measure radioactivity with γ-counter and convert to %ID/g (% injection dose/g organ) of each organ for estimate the biological distribution of L-[^18F]FET. […] According to reports, L-[^18F]FET can pass through blood brain barrier (BBB) and enter brain by way of L amino acid transporter system. […] Tumor-to-normal brain ratio of L-[^18F]FET at 15, 30, 60, 90 and 120 minutes are 1.54, 1.74, 3.16, 3.14 and 2.34 respectively. Besides brain tumor, rat pancreas also accumulate large amount of L-[^18F]FET (0.98, 1.76, 2.55, 2.28 and 2.24 %ID/g respectively at 15, 30, 60, 90 and 120 minutes); the increasing radioactivity of L-[^18F]FET in pancreas is because of pancreas require large amount of amino acid for synthesis various enzymes and hormones. Some papers reported that patient with tumor observes no significant accumulation of radioactivity in pancreas when use positron emission tomography (PET), the discrepant results were assumed that human and rat have different metabolic pathway. Furthermore, biological distribution study of L-[^18F]FET indicated radioactivity accumulation in tumor cells (expressed by %ID/g) are much higher than other normal organs (left-brain, small intestine, kidney, liver, blood and muscle) except pancreas, this means L-[^18F]FET can be a potential PET agent for substantially different site of tumor. […] Table 1: Determination of accumulated radioactivity (%ID/g) in organs at different time points after injected L-[18F]FET into tumor-bearing rat"}, "F98 glioma cells [3]": {"tested_on": "F98 glioma cells", "test": "Biological distribution of L-[18F]FET in F98 glioma-bearing Fischer 344 rat", "settings": "in vivo", "procedure": "as §1"}, "[4]": {"settings": "Liver, read-out: accumulated radioactivity"}, "[5]": {"settings": "Lung, read-out: accumulated radioactivity"}, "[6]": {"settings": "Muscle, read-out: accumulated radioactivity"}, "[7]": {"settings": "Pancreas, read-out: accumulated radioactivity"}, "[8]": {"settings": "Right brain, read-out: accumulated radioactivity"}},
  "note": "Where two headings read alike, the source gives them in different places.",
  "data": [
    {"smiles": "N[C@@H](Cc1ccc(OCC[18F])cc1)C(=O)O", "note": "[L-[^18F]FET, O-(2-[^18F]fluoroethyl)-L-Tyrosine]", "values": [
      {"measurement": "radioactivity accumulation in brain tumor", "setting": "brain tumor (F98 glioma)", "result": "significant radioactivity accumulation in brain tumor"},
      {"measurement": "time of maximum uptake in brain tumor", "setting": "brain tumor (F98 glioma); time after injection", "result": 90, "unit": "min"},
      {"measurement": "uptake ratio", "setting": "F98 glioma cells [1]; after 10 minutes (maximal accumulation)", "result": 0.47, "unit": "%"},
      {"measurement": "uptake ratio", "setting": "F98 glioma cells [1]; after 1 hour", "result": 0.41, "unit": "%"},
      {"measurement": "tissue uptake at 0.25 h", "setting": "[2]; [4]", "result": "0.27 ± 0.06", "unit": "%ID/g"},
      {"measurement": "tissue uptake at 0.5 h", "setting": "[2]; [4]", "result": "0.37 ± 0.07", "unit": "%ID/g"},
      {"measurement": "tissue uptake at 1 h", "setting": "[2]; [4]", "result": "0.41 ± 0.06", "unit": "%ID/g"},
      {"measurement": "tissue uptake at 1.5 h", "setting": "[2]; Liver, 90 min after injection via tail vein, read-out: accumulated radioactivity", "result": "0.49 ± 0.01", "unit": "%ID/g"},
      {"measurement": "tissue uptake at 2 h", "setting": "[2]; [4]", "result": "0.41 ± 0.09", "unit": "%ID/g"},
      {"measurement": "tissue uptake at 0.25 h", "setting": "[2]; [5]", "result": "0.32 ± 0.05", "unit": "%ID/g"},
      {"measurement": "tissue uptake at 0.5 h", "setting": "[2]; [5]", "result": "0.43 ± 0.09", "unit": "%ID/g"},
      {"measurement": "tissue uptake at 1 h", "setting": "[2]; [5]", "result": "0.43 ± 0.07", "unit": "%ID/g"},
      {"measurement": "tissue uptake at 1.5 h", "setting": "[2]; Lung, 90 min after injection via tail vein, read-out: accumulated radioactivity", "result": "0.45 ± 0.02", "unit": "%ID/g"},
      {"measurement": "tissue uptake at 2 h", "setting": "[2]; [5]", "result": "0.4 ± 0.06", "unit": "%ID/g"},
      {"measurement": "tissue uptake at 0.25 h", "setting": "[2]; [6]", "result": "0.19 ± 0.03", "unit": "%ID/g"},
      {"measurement": "tissue uptake at 0.5 h", "setting": "[2]; [6]", "result": "0.28 ± 0.01", "unit": "%ID/g"},
      {"measurement": "tissue uptake at 1 h", "setting": "[2]; [6]", "result": "0.36 ± 0.04", "unit": "%ID/g"},
      {"measurement": "tissue uptake at 1.5 h", "setting": "[2]; Muscle, 90 min after injection via tail vein, read-out: accumulated radioactivity", "result": "0.44 ± 0.1", "unit": "%ID/g"},
      {"measurement": "tissue uptake at 2 h", "setting": "[2]; [6]", "result": "0.37 ± 0.1", "unit": "%ID/g"},
      {"measurement": "tissue uptake at 0.25 h", "setting": "[2]; [7]", "result": 0.98, "unit": "%ID/g"},
      {"measurement": "tissue uptake at 0.5 h", "setting": "[2]; [7]", "result": 1.76, "unit": "%ID/g"},
      {"measurement": "tissue uptake at 1 h", "setting": "[2]; [7]", "result": 2.55, "unit": "%ID/g"},
      {"measurement": "tissue uptake at 1.5 h", "setting": "[2]; Pancreas, 90 min after injection via tail vein, read-out: accumulated radioactivity", "result": 2.28, "unit": "%ID/g"},
      {"measurement": "tissue uptake at 2 h", "setting": "[2]; [7]", "result": 2.24, "unit": "%ID/g"},
      {"measurement": "tissue uptake at 0.25 h", "setting": "[2]; [8]", "result": "0.07 ± 0.02", "unit": "%ID/g"},
      {"measurement": "tissue uptake at 0.5 h", "setting": "[2]; [8]", "result": "0.21 ± 0.03", "unit": "%ID/g"},
      {"measurement": "tissue uptake at 1 h", "setting": "[2]; [8]", "result": "0.34 ± 0.03", "unit": "%ID/g"},
      {"measurement": "tissue uptake at 1.5 h", "setting": "[2]; Right brain, 90 min after injection via tail vein, read-out: accumulated radioactivity", "result": "0.48 ± 0.08", "unit": "%ID/g"},
      {"measurement": "tissue uptake at 2 h", "setting": "[2]; [8]", "result": "0.34 ± 0.04", "unit": "%ID/g"},
      {"measurement": "tissue uptake at 1.5 h", "setting": "[2]; maximum accumulation in normal brain tissue", "result": 0.48, "unit": "%ID/g"},
      {"measurement": "Tumor-to-normal brain ratio", "setting": "F98 glioma cells [3]; 15 min", "result": 1.54},
      {"measurement": "Tumor-to-normal brain ratio", "setting": "F98 glioma cells [3]; 30 min", "result": 1.74},
      {"measurement": "Tumor-to-normal brain ratio", "setting": "F98 glioma cells [3]; 60 min", "result": 3.16},
      {"measurement": "Tumor-to-normal brain ratio", "setting": "F98 glioma cells [3]; 90 min", "result": 3.14},
      {"measurement": "Tumor-to-normal brain ratio", "setting": "F98 glioma cells [3]; 120 min", "result": 2.34}
    ]}
  ]
}
